This test deals with T1, chimeric human H3 receptor (Homo sapiens, UniProt Q9Y5N1, E19D).
T1 construct: made in house; host or cells: Sf9 insect cells (baculovirus infection); P2 membrane preparation
As to the kind of experiment: Chimeric human H3 receptor screening GTP binding assay (inhibition of histamine-stimulated GTP-gamma35S binding, Example 8). It counts as biochemical. The settings on record: 1 h, read-out: percent inhibition of agonist-induced GTP-gammaS binding to H3. The gist of the method: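 Sf9 membranes co-expressing the chimeric receptor and a heterotrimeric G-protein (35 μg protein) in Tris pH 7.4 buffer with 10 μM GDP; compound at 4 μM plus 1 μM histamine, 125 pM GTP-gamma35S, 60 min at room temperature. Filter-bound radioactivity read; non-specific binding defined with 10 uM GTP-gammaS; percent inhibition of histamine signal.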

The mark [1] stands for this setting: assay described in Example 8, symbol + in column headed Ki of Table II.
Setting [2] is: Table II, "+" in the column headed Ki, assay of Example 8.
Setting [3] is: "+" in Ki of Table II, assay of Example 8.
The mark [4] stands for this setting: Table II "Ki", symbol "+": assay described in Example 8.

Where two headings read alike, the source gives them in different places.

T1 sequence (Q9Y5N1 with tags, fused parts or gaps E19D): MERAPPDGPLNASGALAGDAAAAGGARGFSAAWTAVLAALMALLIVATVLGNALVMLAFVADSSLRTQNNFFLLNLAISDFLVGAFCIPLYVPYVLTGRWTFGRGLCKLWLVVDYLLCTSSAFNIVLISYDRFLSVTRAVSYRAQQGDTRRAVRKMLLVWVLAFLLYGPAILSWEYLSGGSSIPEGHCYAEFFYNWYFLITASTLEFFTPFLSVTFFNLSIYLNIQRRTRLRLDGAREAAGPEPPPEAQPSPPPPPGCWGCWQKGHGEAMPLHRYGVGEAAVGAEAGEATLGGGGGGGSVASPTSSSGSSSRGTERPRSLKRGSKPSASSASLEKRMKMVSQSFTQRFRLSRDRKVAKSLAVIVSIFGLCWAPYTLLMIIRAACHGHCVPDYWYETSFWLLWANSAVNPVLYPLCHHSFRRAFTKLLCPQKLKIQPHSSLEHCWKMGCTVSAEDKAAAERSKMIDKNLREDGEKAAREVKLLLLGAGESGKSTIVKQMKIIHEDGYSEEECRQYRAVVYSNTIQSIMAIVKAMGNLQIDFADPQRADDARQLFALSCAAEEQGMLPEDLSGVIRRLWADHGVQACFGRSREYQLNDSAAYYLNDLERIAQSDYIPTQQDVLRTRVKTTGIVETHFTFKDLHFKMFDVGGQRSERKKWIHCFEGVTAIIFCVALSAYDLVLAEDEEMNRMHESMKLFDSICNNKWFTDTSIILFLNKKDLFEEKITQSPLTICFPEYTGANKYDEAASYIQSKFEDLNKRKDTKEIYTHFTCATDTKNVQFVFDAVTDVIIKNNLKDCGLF

`O=C(CN1CCN(C(=O)c2ccc(Br)s2)CC1)N1CCN(C2CCC2)CC1` [Compound 410, 1-[(5-bromo-2-thienyl)carbonyl]-4-[2-(4-cyclobutylpiperazin-1-yl)-2-oxoethyl]piperazine]: the inhibition at 4 µM under setting [1] was > 90%. The same measure, in the same setting: the figure for `O=C(CN1CCN(C(=O)c2ccnc(Cl)c2)CC1)N1CCN(C2CCC2)CC1` [Compound 279, 1-(2-chloroisonicotinoyl)-4-[2-(4-cyclobutylpiperazin-1-yl)-2-oxoethyl]piperazine] is > 90%.

Consider `COc1ccccc1C(=O)N1CCN(CC(=O)N2CCN(C3CCC3)CC2)CC1` [Compound 711, 1-cyclobutyl-4-{[4-(2-methoxybenzoyl)piperazin-1-yl]acetyl}piperazine], for which the inhibition at 4 µM under setting [2] was > 90%. As for `O=C(CN1CCN(C(=O)c2cnc3ccccc3c2)CC1)N1CCN(C2CCC2)CC1` [Compound 985, 3-({4-[2-(4-cyclobutylpiperazin-1-yl)-2-oxoethyl]piperazin-1-yl}carbonyl)quinoline], for the setting “Table II, assay of Example 8, "+" in Ki”, the inhibition at 4 µM was > 90%. As for `O=C(/C=C/c1ccc(Cl)cc1Cl)N1CCN(CC(=O)N2CCN(C3CCC3)CC2)CC1` [Compound 519, 1-cyclobutyl-4-({4-[(2E)-3-(2,4-dichlorophenyl)prop-2-enoyl]piperazin-1-yl}acetyl)piperazine], the inhibition at 4 µM under setting [3] is > 90%. As for `O=C(CN1CCN(C(=O)c2cccnc2)CC1)N1CCN(C2CCC2)CC1` [Compound 800, 1-cyclobutyl-4-{[4-(pyridin-3-ylcarbonyl)piperazin-1-yl]acetyl}piperazine], the inhibition at 4 µM under setting [4] was > 90%.

As to `COc1ccc(CC(=O)N2CCN(CC(=O)N3CCN(C4CCC4)CC3)CC2)cc1OC` [Compound 547, 1-cyclobutyl-4-({4-[(3,4-dimethoxyphenyl)acetyl]piperazin-1-yl}acetyl)piperazine], under setting [3], the inhibition at 4 µM is > 90%. As to `O=C(CN1CCN(C(=O)c2ccncc2)CC1)N1CCN(C2CCC2)CC1` [Compound 655, 1-cyclobutyl-4-[(4-isonicotinoylpiperazin-1-yl)acetyl]piperazine], the inhibition at 4 µM under setting [2] was > 90%. Consider `CC(Oc1ccc(OC(F)(F)F)cc1)C(=O)N1CCN(CC(=O)N2CCN(C3CCC3)CC2)CC1` (centres unmarked) [Compound 637, 1-cyclobutyl-4-[(4-{2-[4-(trifluoromethoxy)phenoxy]propanoyl}piperazin-1-yl)acetyl]piperazine], for which the inhibition at 4 µM under setting [2] is > 90%. As for `O=C(Cc1cccc(Cl)c1)N1CCN(CC(=O)N2CCN(C3CCC3)CC2)CC1` [Compound 400, 1-[(3-chlorophenyl)acetyl]-4-[2-(4-cyclobutylpiperazin-1-yl)-2-oxoethyl]piperazine], under setting [1], the inhibition at 4 µM is > 90%. As for `O=C(CN1CCN(C(=O)c2ccccc2OC(F)(F)F)CC1)N1CCN(C2CCC2)CC1` [Compound 578, 1-cyclobutyl-4-({4-[2-(trifluoromethoxy)benzoyl]piperazin-1-yl}acetyl)piperazine], the inhibition at 4 µM under setting [2] was > 90%. Consider `O=C(COc1cccc2ccccc12)N1CCN(CC(=O)N2CCN(C3CCC3)CC2)CC1` [Compound 500, 1-cyclobutyl-4-({4-[(1-naphthyloxy)acetyl]piperazin-1-yl}acetyl)piperazine], for which, under setting [3], the inhibition at 4 µM was > 90%. For the compound `COc1cc(Br)c(/C=C/C(=O)N2CCN(CC(=O)N3CCN(C4CCC4)CC3)CC2)cc1OC` [Compound 386, 1-[(2E)-3-(2-bromo-4,5-dimethoxyphenyl)prop-2-enoyl]-4-[2-(4-cyclobutylpiperazin-1-yl)-2-oxoethyl]piperazine], the inhibition at 4 µM under setting [1] is > 90%. With `O=C(COc1ccc(F)cc1)N1CCN(CC(=O)N2CCN(C3CCC3)CC2)CC1` [Compound 558, 1-cyclobutyl-4-({4-[(4-fluorophenoxy)acetyl]piperazin-1-yl}acetyl)piperazine], under setting [3], the inhibition at 4 µM is > 90%. For `O=C(CN1CCN(C(=O)c2ccc(F)c(Cl)c2)CC1)N1CCN(C2CCC2)CC1` [Compound 296, 1-(3-chloro-4-fluorobenzoyl)-4-[2-(4-cyclobutylpiperazin-1-yl)-2-oxoethyl]piperazine], the inhibition at 4 µM under setting [1] is > 90%.

Take `O=C(Cc1cccc(C(F)(F)F)c1F)N1CCN(CC(=O)N2CCN(C3CCC3)CC2)CC1` [Compound 623, 1-cyclobutyl-4-[(4-{[2-fluoro-3-(trifluoromethyl)phenyl]acetyl}piperazin-1-yl)acetyl]piperazine]: the inhibition at 4 µM under setting [2] is > 90%.

`CC(C)c1ccc(C(=O)N2CCN(CC(=O)N3CCN(C4CCC4)CC3)CC2)cc1` [Compound 777, 1-cyclobutyl-4-{[4-(4-isopropylbenzoyl)piperazin-1-yl]acetyl}piperazine]: the inhibition at 4 µM under setting [4] was > 90%. Take `CC(C)Oc1ccc(C(=O)N2CCN(CC(=O)N3CCN(C4CCC4)CC3)CC2)cc1` [Compound 776, 1-cyclobutyl-4-{[4-(4-isopropoxybenzoyl)piperazin-1-yl]acetyl}piperazine]: the inhibition at 4 µM under setting [4] is > 90%. With `CSc1ccc(C(=O)N2CCN(CC(=O)N3CCN(C4CCC4)CC3)CC2)s1` [Compound 633, 1-cyclobutyl-4-[(4-{[5-(methylthio)-2-thienyl]carbonyl}piperazin-1-yl)acetyl]piperazine], the inhibition at 4 µM under setting [2] is > 90%. For the compound `COc1cscc1C(=O)N1CCN(CC(=O)N2CCN(C3CCC3)CC2)CC1` [Compound 561, 1-cyclobutyl-4-({4-[(4-methoxy-3-thienyl)carbonyl]piperazin-1-yl}acetyl)piperazine], the inhibition at 4 µM under setting [3] was > 90%.

As for `COc1ccc(/C=C/C(=O)N2CCN(CC(=O)N3CCN(C4CCC4)CC3)CC2)c(OC)c1` [Compound 520, 1-cyclobutyl-4-({4-[(2E)-3-(2,4-dimethoxyphenyl)prop-2-enoyl]piperazin-1-yl}acetyl)piperazine], under setting [3], the inhibition at 4 µM was > 90%. As for `O=C(/C=C/c1ccc(Cl)cc1)N1CCN(CC(=O)N2CCN(C3CCC3)CC2)CC1` [Compound 391, 1-[(2E)-3-(4-chlorophenyl)prop-2-enoyl]-4-[2-(4-cyclobutylpiperazin-1-yl)-2-oxoethyl]piperazine], the inhibition at 4 µM under setting [1] was > 90%. With `O=C(Cc1ccccc1)N1CCN(CC(=O)N2CCN(C3CCC3)CC2)CC1` [Compound 798, 1-cyclobutyl-4-{[4-(phenylacetyl)piperazin-1-yl]acetyl}piperazine], the inhibition at 4 µM under setting [4] is > 90%.

Regarding `O=C(CN1CCN(C(=O)c2ccccc2Cl)CC1)N1CCN(C2CCC2)CC1` [Compound 277, 1-(2-chlorobenzoyl)-4-[2-(4-cyclobutylpiperazin-1-yl)-2-oxoethyl]piperazine], the inhibition at 4 µM under setting [1] is > 90%.

With `O=C(COc1ccccc1Cl)N1CCN(CC(=O)N2CCN(C3CCC3)CC2)CC1` [Compound 383, 1-[(2-chlorophenoxy)acetyl]-4-[2-(4-cyclobutylpiperazin-1-yl)-2-oxoethyl]piperazine], the inhibition at 4 µM under setting [1] was > 90%. Take `O=C(/C=C/c1cccc2ccccc12)N1CCN(CC(=O)N2CCN(C3CCC3)CC2)CC1` [Compound 514, 1-cyclobutyl-4-({4-[(2E)-3-(1-naphthyl)prop-2-enoyl]piperazin-1-yl}acetyl)piperazine]: under setting [3], the inhibition at 4 µM was > 90%. Regarding `O=C(Cc1cccc2ccccc12)N1CCN(CC(=O)N2CCN(C3CCC3)CC2)CC1` [Compound 663, 1-cyclobutyl-4-{[4-(1-naphthylacetyl)piperazin-1-yl]acetyl}piperazine], the inhibition at 4 µM under setting [2] is > 90%.

`O=C(CN1CCN(C(=O)c2c(F)cccc2Cl)CC1)N1CCN(C2CCC2)CC1` [Compound 274, 1-(2-chloro-6-fluorobenzoyl)-4-[2-(4-cyclobutylpiperazin-1-yl)-2-oxoethyl]piperazine]: the inhibition at 4 µM under setting [1] was > 90%. Consider `O=C(/C=C/c1cccc(F)c1F)N1CCN(CC(=O)N2CCN(C3CCC3)CC2)CC1` [Compound 516, 1-cyclobutyl-4-({4-[(2E)-3-(2,3-difluorophenyl)prop-2-enoyl]piperazin-1-yl}acetyl)piperazine], for which the inhibition at 4 µM under setting [3] was > 90%. `O=C(CN1CCN(C(=O)c2cc(Cl)cc(Cl)c2)CC1)N1CCN(C2CCC2)CC1` [Compound 738, 1-cyclobutyl-4-{[4-(3,5-dichlorobenzoyl)piperazin-1-yl]acetyl}piperazine]: the inhibition at 4 µM under setting [2] was > 90%. Consider `Cc1ccc(OCC(=O)N2CCN(CC(=O)N3CCN(C4CCC4)CC3)CC2)c(C)c1` [Compound 508, 1-cyclobutyl-4-({4-[(2,4-dimethylphenoxy)acetyl]piperazin-1-yl}acetyl)piperazine], for which the inhibition at 4 µM under setting [3] was > 90%. On to `COc1cc(/C=C/C(=O)N2CCN(CC(=O)N3CCN(C4CCC4)CC3)CC2)ccc1OCc1ccccc1` [Compound 471, 1-{(2E)-3-[4-(benzyloxy)-3-methoxyphenyl]prop-2-enoyl}-4-[2-(4-cyclobutylpiperazin-1-yl)-2-oxoethyl]piperazine], for which, under setting [3], the inhibition at 4 µM is > 90%. The same measure, in the same setting: the figure for `Cc1cccc(OCC(=O)N2CCN(CC(=O)N3CCN(C4CCC4)CC3)CC2)c1` [Compound 554, 1-cyclobutyl-4-({4-[(3-methylphenoxy)acetyl]piperazin-1-yl}acetyl)piperazine] is > 90%. Regarding `COc1ccc(C(=O)N2CCN(CC(=O)N3CCN(C4CCC4)CC3)CC2)cc1F` [Compound 748, 1-cyclobutyl-4-{[4-(3-fluoro-4-methoxybenzoyl)piperazin-1-yl]acetyl}piperazine], under setting [2], the inhibition at 4 µM was > 90%. Consider `COc1ccc(Br)c(C(=O)N2CCN(CC(=O)N3CCN(C4CCC4)CC3)CC2)c1` [Compound 271, 1-(2-bromo-5-methoxybenzoyl)-4-[2-(4-cyclobutylpiperazin-1-yl)-2-oxoethyl]piperazine], for which the inhibition at 4 µM under setting [1] was > 90%.

For orientation: inhibition means the drop in the measured response relative to a control, in per cent.

The values above are taken from patent US7851474B2, “Dipiperazinyl ketones and related analogues” (Neurogen Corporation, priority 2005, dated 2010).
